Measured values: PMC7955127, “Preclinical small molecule WEHI-7326 overcomes drug resistance and elicits response in patient-derived xenograft models of human treatment-refractory tumors” (Cell Death & Disease, 2021)

How the values were obtained:
[1] = system: MDA-MB-231; assay: Cell growth inhibition assay, MDA-MB-231; format: cell-based; conditions: Homo sapiens; MDA-MB-231, breast carcinoma; 72 h viability assay, CellTiterGlo; mean of 3 ± SEM; read-out: IC50 (inhibition of cellular proliferation)
Procedure: (§1) Cells were plated at a density of between 500 to 5000 cells per well for adherent cell lines depending on doubling time, and 15,000 cells per well for lymphoblastic leukemia cell lines, in a 96-well plate in 200 μl of growth media. Plates were incubated overnight at 37 °C before adding the inhibitors. Inhibitors were serially diluted from the stock solutions in complete medium and added to the cells. Incubation in the presence of inhibitors was continued for […]. Cell viability was assessed by the AlamarBlue (Invitrogen) or CellTiterBlue/Glo (Promega) method according to manufacturer’s instructions. The curve fits and IC50 values were generated in PRISM (GraphPad, San Diego, CA).

[2] = system: MDA-MB-231 LNA DRE (docetaxel resistant breast cancer) xenograft; assay: Orthotopic MDA-MB-231 LNA-DRE xenograft; format: in vivo, Balb/c nude mice; conditions: docetaxel 10 mg/kg weekly i.v., WEHI-7326 30 mg/kg biweekly i.v.
Procedure: LoVo (4 × 10^6), PC3 (3 × 10^6) or MDA-MB-231 LNA DRE (10^6) cells were collected by trypsination and injected with 50 μl 1:1 PBS:Matrigel (v/v) subcutaneously on the right flank of 18 female (LoVo), 40 male (PC3) or into 4th mammary fat pad of 40 female (MDA231) Balb/c nude mice. Tumor growth was monitored and average tumor size at commencement of dosing was 100 mm^3. Mice were randomized into 3 arms of each 5 (LoVo), 10 (PC3) or 12 (MDA23) mice respectively and treatment with vehicle (saline), WEHI-7326 (biweekly) or docetaxel (weekly) was administered via tail vein injection. Tumor volumes were measured at least twice weekly with calipers and the experiments were terminated when tumors in the control group started exceeding 1500 mm^3. For LoVo, both vehicle and 25 mg/kg WEHI-7326 groups were harvested 24 h, but 20 mg/kg WEHI-7326 group harvested 1 h post final dose. For PC3, docetaxel group was not harvested in an attempt to grow out resistant tumors.

[3] = system: 134036 HGSOC PDX; assay: HGSOC PDX model 134036; format: in vivo, NSG mice; conditions: 134036 C5 platinum refractory PDX; 20 mg/kg i.v. biweekly, 6 weeks
Procedure: Two to three mm ovarian tumor fragments were subcutaneously engrafted in the left flank of NSG mice and monitored by physical palpation for tumor growth and engraftment. Engrafted tumors were measured twice a week using digital Vernier calipers and maximum tumor diameter + perpendicular tumor length were digitally recorded into the Study Director software (v 3.0/4.0 StudyLog). Tumor volume was calculated automatically (tumor volume (mm^3) = 0.5236 x [larger diameter (mm) x smaller diameter (mm)^2]). Mice were randomized to treatment once their tumor volume reach 180–300 mm^3 and tumor measurements were performed twice a week up to 120 days or when the tumor volume reaches 700 mm^3.
Time to progressive disease (PD): Defined as the time (in days) from beginning of treatment to an increase in average tumor volume of >20% from the nadir (taken as the smallest average tumor volume recorded since treatment started or 200 mm^3 if nadir was <200 mm^3 as lesions smaller than this are difficult to measure with accuracy). Median time to harvest (TTH): Defined as the time (in days) from the beginning of treatment to day of harvest at 700 mm^3 and the median TTH was calculated and plotted using Kaplan-Meier curves. Based on ref. [27]. […]

[4] = system: COG-N-440x neuroblastoma PDX; assay: High-risk neuroblastoma PDX COG-N-440x; format: in vivo, NSG mice; conditions: COG-N-440x PDX; 20 mg/kg i.v. twice weekly
Procedure: All animal studies were performed in accordance with the guidelines approved by University of New South Wales Animal Care and Ethics Committee (ACEC 17/53B) and in accordance with the requirements of the Australian Code for the Care and Use of Animals for Scientific Purposes. PDX models COG-N-440x and COG-N-496x were obtained from the Childhood Cancer Repository, Texas Tech University Health Sciences Center in Lubbock, TX, USA. 6–8 week old female NSG mice were engrafted by subcutaneous injection with 1 × 10^6 freshly thawed PDX tumor cells into one flank in a mixture of 100 μl RPMI-1640 and 100 μl Matrigel. Mice were monitored for tumor development three times weekly and tumor size measured using digital Vernier calipers. Treatments commenced when tumors reached 50 mm^3, following randomization into treatment arms. […] Mice were treated with either vincristine (0.5 mg/kg, once weekly i.p. in sterile saline for up to 5 weeks), WEHI-7326 (20 mg/kg; twice weekly i.v. in sterile saline for up to 5 weeks) or vehicle (as for WEHI-7326). For the Th-MYCN transgenic mouse model, spontaneous tumor growth in mice homozygous for the MYCN transgene was assessed by abdominal palpation at least twice a week. Treatments commenced once a small palpable tumor (~5 mm) was detected, following randomization to treatment arms. Mice were euthanized upon detection of an abdominal tumor of ~1 cm in diameter. […]

[5] = system: MDA-MB-231, H1437, LoVo and PC3 cells; assay: Anti-proliferative activity in a panel of cancer cell lines (CellTiterGlo, 72 h); format: cell-based, human
Procedure: as §1

For COc1ccc(CNc2nc(NCc3ccc(CN)cc3)nc(NN3CC(=O)NC3=O)n2)cc1 [WEHI-7326], the IC50 [1] was 0.0244 ± 0.0031 µM, the “Tumor growth inhibition (TGI)” value [2] was 105% and the Tumor response [3] was “completely unresponsive”. For the same compound, the Median survival [4] was 39 days and the “Anti-proliferative activity relative to myoseverin B” value [5] was “over 10 fold”.
